Assays:
TbPRMT6 [1] = biological target: T1, TbPRMT6 (Trypanosoma brucei, UniProt Q57U70); test: X-ray crystal structure, […] A; conditions: co-crystallised with three-fold molar excess SAH; 100 mM citrate pH 5.5, 20% PEG3000, 293 K; SAM-binding pocket
T1 construct: gene Tb05.6E7.1000; full-length, E. coli BL21(DE3), modified pET28a, N-terminal 6xHis cut by TEV protease; 41 kDa monomer, homodimer; residues 1-24 and 228-229 disordered in crystal
T1 sequence (Q57U70 1-368): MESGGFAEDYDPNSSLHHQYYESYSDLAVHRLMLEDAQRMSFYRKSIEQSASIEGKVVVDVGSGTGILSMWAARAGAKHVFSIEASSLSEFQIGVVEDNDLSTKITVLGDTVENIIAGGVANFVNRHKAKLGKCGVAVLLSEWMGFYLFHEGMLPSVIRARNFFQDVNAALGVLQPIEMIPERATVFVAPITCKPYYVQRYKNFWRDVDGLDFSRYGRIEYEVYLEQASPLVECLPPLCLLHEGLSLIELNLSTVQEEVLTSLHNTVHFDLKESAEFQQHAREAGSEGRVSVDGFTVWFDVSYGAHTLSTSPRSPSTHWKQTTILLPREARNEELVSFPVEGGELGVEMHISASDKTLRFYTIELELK

TbPRMT6 [2] = biological target: T1, TbPRMT6; test: in vitro methylation of Trx-H4tail, western blot for asymmetric dimethyl H4R3; format: biochemical; conditions: 40 uM SAM, 1 ug Trx-H4tail (bovine histone H4 residues) as co-substrate; 30 mM Tris pH 8.0, 100 mM NaCl, 1 mM EDTA, 5 mM DTT, 37 C, 12 h

| SMILES | X-ray crystal structure, 2.35 A (TbPRMT6 [1]) | in vitro methylation of Trx-H4tail, western blot for asymmetric dimethyl H4R3 (TbPRMT6 [2]) |
| --- | --- | --- |
| Nc1ncnc2c1ncn2[C@@H]1O[C@H](CSCC[C@H](N)C(=O)O)[C@@H](O)[C@H]1O [SAH, S-adenosyl-homocysteine] | Structures of apo-TbPRMT6 and in complex with SAH (SAH-TbPRMT6) were resolved and refined |  |
| C[S+](CC[C@H](N)C(=O)O)C[C@H]1O[C@@H](n2cnc3c(N)ncnc32)[C@H](O)[C@@H]1O (stereo partly drawn) [SAM, S-adenosyl-L-methionine] |  | our result also showed that TbPRMT6 can methylate bovine histone H4R3 |

Reference: publication PMC3911951, “Crystal Structure of Arginine Methyltransferase 6 from Trypanosoma brucei” (PLoS ONE, 2014)
